Test results: patent US7772429B2, “Diphenylazetidinone with improved physiological properties, process for its preparation, medicaments comprising this compound, and its use” (Sanofi-Aventis Deutschland GmbH, priority 2003, dated 2010)
≈ marks a conversion by molar mass, not a printed value.

Tests used:
[1] = Solubility in aqueous buffers, FaSSIF and FeSSIF (HPLC/UV); type: physicochemical; conditions: for solubility at 4 h: 25 °C, thermodynamic from solid
Method: FaSSIF (fasted State Simulating Intestinal Fluid) and FeSSIF (Fed State Simulating Intestinal Fluid) media which reflect the pH/solubilization conditions in the upper small intestine in the pre- and postprandial state, respectively, were used to test this improved solubility.
0.5 mg of the compound to be tested was weighed exactly into an Eppendorf cap, and 0.5 ml of the solvent in question (aqueous buffer) was added. The Eppendorf cap was then introduced into a thermomixer and, at 25° C., shaken at 1 400 rpm for 4 hours.
The Eppendorf cap was then introduced into a centrifuge. Following centrifugation, an aliquot of the supernatant was used to determine the amount dissolved, using HPLC/UV analysis.

[2] = Stability in solution in aqueous buffers (HPLC/UV); type: physicochemical; conditions: for Increase of the area of the impurities in percent: 24 hours at 37° C.
Method: The stability of dissolved compound I and of dissolved C1 was determined in aqueous buffers in the pH range 1.2-8.0. 1 mg of the compound in question was weighed into a 5 ml measuring flask. A small amount of acetonitrile was used to dissolve the substance. The flask was then filled up to the mark with the aqueous buffer. The precipitated compound was centrifuged and the clear supernatant was then tested for stability in solution for 24 hours at 37° C. The samples were evaluated using HPLC/UV.

[3] = tested on: cholesterol absorption (uptake of 14C-cholesterol by the liver); assay: Cholesterol absorption test: uptake of 14C-cholesterol by the liver; type: in vivo, NMRI mice; conditions: dose at which uptake of 14C-cholesterol by the liver is halved vs control group; mouse, peroral
[4] = FaSSIF, repetition of the tests
[5] = FeSSIF, repetition of the tests
[6] = aqueous buffer, pH 1.2, simulated gastric fluid, pH 1.2 aqueous buffer, 4 hours
[7] = aqueous buffer, pH 4.5, aqueous buffer, 4 hours
[8] = aqueous buffer, pH 6.8, aqueous buffer, 4 hours
[9] = aqueous buffer, pH 8, aqueous buffer, 4 hours
[10] = based on an available volume of 250 ml (Biopharmaceutical Classification System), best case

`COc1ccc([C@@H]2[C@@H](CC[C@H](O)c3ccc(F)cc3)C(=O)N2c2ccc(CNC(=O)CCCCCCCCCCCNC(=O)[C@H](O)[C@@H](O)[C@H](O)[C@H](O)CO)cc2)cc1` [Example C1, reference compound] gave a solubility at 4 h ([1]; FaSSIF, 4 hours) of 5 µg/mL (≈ 6.17 µM), a solubility at 4 h [1, 4] of 6 µg/mL (≈ 7.41 µM) and a solubility at 4 h ([1]; FeSSIF, 4 hours) of 18 µg/mL (≈ 22.2 µM). The solubility at 4 h [1, 5] was 20 µg/mL (≈ 24.7 µM), the solubility at 4 h [1, 6] was < 1 µg/mL and the solubility at 4 h [1, 7] was < 1 µg/mL. The solubility at 4 h [1, 8] was < 1 µg/mL, the solubility at 4 h [1, 9] was < 1 µg/mL and the soluble dose [1, 10] was ~5 mg. The soluble dose ([1]; based on an available volume of 250 ml, worst case) was 1.25 mg, the solubility at 4 h ([1]; water, shaken 4 hours) was < 1 µg/mL and the “Increase of the area of the impurities in percent” value (from here on “Increase of the area … in percent”) ([2]; pH 1.2) was 13.3%. The “Increase of the area … in percent” value ([2]; pH 6.8) was 0.5% and the “Increase of the area … in percent” value ([2]; pH 8.0) was 4.6%.

With `COc1ccc([C@@H]2[C@@H](CC[C@H](O)c3ccc(F)cc3)C(=O)N2c2ccc(CNC(=O)CCCCCCCCCCC(=O)NC[C@H](O)[C@@H](O)[C@H](O)[C@H](O)CO)cc2)cc1` [Example I, dodecanedioic acid 4-[(2S,3R)-3-[(S)-3-(4-fluorophenyl)-3-hydroxypropyl]-2-(4-methoxyphenyl)-4-oxoazetidin-1-yl]benzylamide ((2S,3R,4R,5R)-2,3,4,5,6-pentahydroxyhexyl)amide] the “ED50 (liver)” value [3] was 0.005 mg/mouse, the solubility at 4 h ([1]; FaSSIF, 4 hours) was 28 µg/mL (≈ 34.6 µM) and the solubility at 4 h [1, 4] was 43 µg/mL (≈ 53.1 µM). For the same compound, the solubility at 4 h ([1]; FeSSIF, 4 hours) was 454 µg/mL (≈ 561 µM), the solubility at 4 h [1, 5] was 290 µg/mL (≈ 358 µM) and the “pH of the water sample (Water (pH))” value ([1]; Water, 25° C., shaken 4 hours) was 6.8. The solubility at 4 h [1, 6] was 3 µg/mL (≈ 3.7 µM), the solubility at 4 h [1, 7] was 4 µg/mL (≈ 4.94 µM) and the solubility at 4 h [1, 8] was 2 µg/mL (≈ 2.47 µM). For the same compound, the solubility at 4 h [1, 9] was 2 µg/mL (≈ 2.47 µM), the soluble dose [1, 10] was ~100 mg and the solubility at 4 h ([1]; water, shaken 4 hours) was 3 µg/mL (≈ 3.7 µM). The “times more stable than C1” value ([2]; depending on the pH, relative to C1) was “at least 2.7 times”, the “Increase of the area … in percent” value ([2]; pH 1.2) was 4.9% and the “Increase of the area … in percent” value ([2]; pH 6.8) was 0%. For the same compound, the “Increase of the area … in percent” value ([2]; pH 8.0) was 0.2%.
